# In patent US7332476B2, “Pyridyl substituted ketolide antibiotics” (Novartis AG, priority 2003, dated 2008):
# Assays:
# Test in all cases: MIC, broth microdilution (NCCLS)
# Format in all cases: cell-based
# [1] = system: Streptococcus pneumoniae Stpn_297-749; details: Table 10, Strain ID N (Table 8): Streptococcus pneumoniae Stpn_297-749
# Outline: (§1)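 NCCLS broth microdilution with 2-fold serial drug dilutions (methanol stocks diluted in water); inoculum 3×10^5–7×10^5 CFU/ml in CAMHB, with 2-5% lysed horse blood for S. pneumoniae. Incubation 18-24 h at 35° C., ambient air, except S. pneumoniae (5-10% CO2). MIC is lowest concentration preventing visible growth.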
# [2] = system: Streptococcus pneumoniae Stpn_49619; details: Table 10, Strain ID M (Table 8): Streptococcus pneumoniae Stpn_49619
# Outline: as §1
# [3] = system: Streptococcus pneumoniae Stpn_280-962; details: Table 10, Strain ID O (Table 8): Streptococcus pneumoniae Stpn_280-962
# Outline: as §1
# [4] = system: Enterococcus faecalis Enfa_29212; details: Table 10, Strain ID E (Table 8): Enterococcus faecalis Enfa_29212; in µg/mL (unit assumed)
# Outline: as §1
# [5] = system: Streptococcus pneumoniae Stpn_Mef S 3427; details: Table 10, Strain ID Q (Table 8): Streptococcus pneumoniae Stpn_Mef S 3427; in µg/mL (unit assumed)
# Outline: as §1
# [6] = system: Haemophilus influenzae Hain_49247; details: Table 10, Strain ID H (Table 8): Haemophilus influenzae Hain_49247; unit assumed
# [7] = system: Staphylococcus epidermidis Step_f50654; details: Table 10, Strain ID D (Table 8): Staphylococcus epidermidis Step_f50654; in µg/mL (unit assumed)
# Outline: as §1
# [8] = system: Staphylococcus epidermidis Step_14990; details: Table 10, Strain ID C (Table 8): Staphylococcus epidermidis Step_14990; in µg/mL (unit assumed)
# Outline: as §1
# [9] = system: Staphylococcus aureus Stau_29213; details: Table 10, Strain ID A (Table 8): Staphylococcus aureus Stau_29213; in µg/mL (unit assumed)
# Outline: as §1
# [10] = system: Streptococcus pneumoniae Stpn_Mef 5654; details: Table 10, Strain ID P (Table 8): Streptococcus pneumoniae Stpn_Mef 5654; in µg/mL (unit assumed)
# Outline: as §1
# [11] = system: Haemophilus influenzae Hain_960730503-3; details: Table 10, Strain ID I (Table 8): Haemophilus influenzae Hain_960730503-3; in µg/mL (unit assumed)
# Description: (§2) Strains. The bacterial isolates listed in Table 8 were cultivated from −70° C. frozen stocks by two consecutive overnight passages (P1, P2) at 35° C. on 5% blood agar (Remel, Lenexa, Kans.). Chocolate agar (Remel) is used for Haemophilus influenzae. H. influenzae and Streptococcus pneumoniae are incubated in 5-10% CO2
# (§3) Drug Stock Preparation. To determine the amount of solvent to be used to give the desired final concentration, the formula “weight obtained in mg/final concentration in mg/ml” will be used. It will give the amount of solvent in ml needed to be added to give the desired concentration. For example, if 2.5 mg/ml is the desired concentration and the weight of compound is 13.7 mg, then the amount of solvent to be added is […]. Methanol is used as the solvent to dissolve the test compounds. Further dilution of stock is done in sterile, deionized water. Drug stocks are kept frozen at −70° C., protected from light.
# (§4) Susceptibility Testing. MICs are determined by the broth microdilution method in accordance with the NCCLS guidelines. In brief, organism suspensions are adjusted to a 0.5 McFarland standard to yield a final inoculum between 3×10^5 and 7×10^5 CFU/ml. Drug dilutions and inocula are made in sterile, cation adjusted Mueller-Hinton Broth (CAMHB) (Remel) for all but S. pneumoniae [CAMHB with 2-5% lysed horse blood (Remel)] and H. influenzae [Haemophilus Test Medium (Remel)]. An inoculum volume of 100 μl is added to wells containing 100 μl of broth with 2-fold serial dilutions of drug. All inoculated microdilution trays are incubated in ambient air at 35° C. for 18-24 hours, except for S. pneumoniae, and H. influenzae (both at 5-10% CO2).
# (§5) Following appropriate incubation, the MIC is determined and the MIC is defined as the lowest concentration of the drug that prevented visible growth. […] Antibacterial activity of representative compounds of the invention were compared against telitromycin.
# [12] = system: Haemophilus influenzae Hain_2762; details: Table 10, Strain ID L (Table 8): Haemophilus influenzae Hain_2762; in µg/mL (unit assumed)
# Description: as §2, §3, §4, §5
# [13] = system: Haemophilus influenzae Hain_953460299-3; details: Table 10, Strain ID K (Table 8): Haemophilus influenzae Hain_953460299-3; in µg/mL (unit assumed)
# Description: as §2, §3, §4, §5
# [14] = system: Enterococcus faecalis Enfa_bc 11148-2; details: Table 10, Strain ID F (Table 8): Enterococcus faecalis Enfa_bc 11148-2; in µg/mL (unit assumed)
# Description: as §2, §3, §4, §5
# [15] = system: Staphylococcus aureus Stau_33591; details: Table 10, Strain ID B (Table 8): Staphylococcus aureus Stau_33591; unit assumed
# Description: as §2, §3, §4, §5
# [16] = system: Haemophilus influenzae Hain_960820544-3; details: Table 10, Strain ID J (Table 8): Haemophilus influenzae Hain_960820544-3; in µg/mL (unit assumed)
# Description: as §2, §3, §4, §5
# [17] = system: Streptococcus pyogenes Stpy_8668; details: Table 10, Strain ID G (Table 8): Streptococcus pyogenes Stpy_8668
# Outline: as §1
# [18] = system: Streptococcus pneumoniae Stpn_Erm S 4297; details: Table 10, Strain ID R (Table 8): Streptococcus pneumoniae Stpn_Erm S 4297
# Outline: as §1
Compound,MIC [1],MIC [2],MIC [3],MIC [4],MIC [5],MIC [6] [µg/mL],MIC [7],MIC [8],MIC [9],MIC [10],MIC [11],MIC [12],MIC [13],MIC [14],MIC [15] [µg/mL],MIC [16],MIC [17],MIC ([17]; unit assumed) [µg/mL],MIC ([18]; unit assumed) [µg/mL],MIC [18]
CC[C@H]1OC(=O)[C@H](C)C(=O)[C@H](C)[C@@H](OC2O[C@H](C)C[C@H](N(C)C)[C@H]2O)[C@@](C)(OC)C[C@@H](C)C(=O)[C@H](C)[C@@H]2[C@@H]1OC(=O)N2CCCCn1cnc(-c2ccc(C)nc2)c1 (some centres unmarked) [XXV],=0.05,=0.05,=0.05,0.1,.04,3.13,0.2,0.2,0.2,1.56,6.25,1.56,6.25,3.13,> 50,6.25,=0.05,,,
C=C[C@]12OC(=O)N(CCCCn3cnc(-c4ccc(OC)nc4)c3C)[C@@H]1[C@@H](C)C(=O)[C@H](C)C[C@](C)(OC)[C@H](OC1O[C@H](C)C[C@H](N(C)C)[C@H]1O)[C@@H](C)C(=O)[C@@H](C)C(=O)O[C@@H]2CC (some centres unmarked) [XXVI],=0.05,=0.05,=0.05,0.2,0.2,6.25,0.4,0.1,0.2,1.56,12.5,1.56,12.5,1.56,> 50,12.5,,0.1,,
C=C[C@]12OC(=O)N(CCCCn3cc(-c4ccc(OC)nc4)nc3C)[C@@H]1[C@@H](C)C(=O)[C@H](C)C[C@](C)(OC)[C@H](OC1O[C@H](C)C[C@H](N(C)C)[C@H]1O)[C@@H](C)C(=O)[C@@H](C)C(=O)O[C@@H]2CC (some centres unmarked) [XXVII],=0.05,=0.05,=0.05,0.2,0.2,6.25,0.2,0.2,0.2,1.56,12.5,1.56,12.5,6.25,> 50,6.25,,0.1,,
CC[C@H]1OC(=O)[C@H](C)C(=O)[C@H](C)[C@@H](OC2O[C@H](C)C[C@H](N(C)C)[C@H]2O)[C@@](C)(OC)C[C@@H](C)C(=O)[C@H](C)[C@H]2N(CCCCn3cnc(-c4ccc(OC)nc4)c3)C(=O)O[C@]12CC (some centres unmarked) [XVII],=0.05,=0.05,=0.05,0.1,0.2,6.25,0.2,0.4,0.2,0.78,6.25,1.56,12.5,3.13,> 50,12.5,=0.05,,0.2,
CC[C@H]1OC(=O)[C@H](C)C(=O)[C@H](C)[C@@H](OC2O[C@H](C)C[C@H](N(C)C)[C@H]2O)[C@@](C)(OC)C[C@@H](C)C(=O)[C@H](C)[C@H]2N(CCCCn3cnc(-c4ccc(F)nc4)c3)C(=O)O[C@]12CC (some centres unmarked) [XV],=0.05,=0.05,=0.05,0.1,0.1,3.13,0.2,0.2,0.4,0.4,6.25,0.78,3.13,0.78,> 50,6.25,=0.05,,0.1,
C=C[C@]12OC(=O)N(CCCCn3cnc(-c4ccc(F)nc4)c3)[C@@H]1[C@@H](C)C(=O)[C@H](C)C[C@](C)(OC)[C@H](OC1O[C@H](C)C[C@H](N(C)C)[C@H]1O)[C@@H](C)C(=O)[C@@H](C)C(=O)O[C@@H]2CC (some centres unmarked) [XIX],=0.05,=0.05,=0.05,0.1,0.1,3.13,0.1,0.1,0.1,0.4,12.5,1.56,6.25,0.4,> 50,6.25,=0.05,,,=0.05
C=C[C@]12OC(=O)N(CCCCn3cnc(-c4ccc(OCC)nc4)c3)[C@@H]1[C@@H](C)C(=O)[C@H](C)C[C@](C)(OC)[C@H](OC1O[C@H](C)C[C@H](N(C)C)[C@H]1O)[C@@H](C)C(=O)[C@@H](C)C(=O)O[C@@H]2CC (some centres unmarked) [XXII],=0.05,=0.05,=0.05,0.2,0.78,6.25,0.4,0.4,0.4,0.78,6.25,1.56,12.5,25,> 50,3.13,,0.1,1.56,
C=C[C@]12OC(=O)N(CCCCn3cnc(-c4ccc(N(C)C)nc4)c3)[C@@H]1[C@@H](C)C(=O)[C@H](C)C[C@](C)(OC)[C@H](OC1O[C@H](C)C[C@H](N(C)C)[C@H]1O)[C@@H](C)C(=O)[C@@H](C)C(=O)O[C@@H]2CC (some centres unmarked) [XXIV],=0.05,=0.05,=0.05,0.1,0.4,12.5,0.2,0.2,0.2,1.56,12.5,1.56,12.5,0.78,> 50,6.25,=0.05,,,
